Test results reported in patent US20250352512A2, “C4-S[…] DERIVATIVES AND METHODS OF USING” (priority 2022, published 2025).
Read-outs that look alike come from different tables or passages of the source.

Assays:
5-HT1A receptor = target: T1, 5-HT1A receptor (Homo sapiens, UniProt P08908); assay type: cell-based; conditions: for 5-HT1A receptor modulation: comparison of +5-HT1A with -5-HT1A cultures, 4 mM forskolin
T1 construct: host or cells: CHO-K1
T1 sequence (P08908 1-422): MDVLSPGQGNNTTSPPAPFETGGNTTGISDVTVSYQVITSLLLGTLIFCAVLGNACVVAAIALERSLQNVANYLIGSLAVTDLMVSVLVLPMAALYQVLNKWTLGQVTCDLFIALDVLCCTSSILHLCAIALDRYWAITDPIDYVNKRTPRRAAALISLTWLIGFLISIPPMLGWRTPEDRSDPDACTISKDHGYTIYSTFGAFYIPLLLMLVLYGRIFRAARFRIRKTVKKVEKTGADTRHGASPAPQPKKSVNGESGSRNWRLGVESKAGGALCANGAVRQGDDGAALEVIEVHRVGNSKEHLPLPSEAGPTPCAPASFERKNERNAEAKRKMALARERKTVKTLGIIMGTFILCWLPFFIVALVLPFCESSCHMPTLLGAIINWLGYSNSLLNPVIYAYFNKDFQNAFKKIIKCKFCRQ

[1] = target: T2, 5-HT2A receptor (5-HT2AR) (Mus musculus, UniProt P35363); test: Drug-induced Head Twitch Response (HTR) in mice; assay type: in vivo; conditions: C57BL/6-Elite mice, i.p. 1 mg/kg, 15-to-30-minute window following administration
T2 construct: tissue Charles River; host or cells: living C57BL/6-Elite mice (neuronal receptor)
T2 sequence (P35363 whole entry): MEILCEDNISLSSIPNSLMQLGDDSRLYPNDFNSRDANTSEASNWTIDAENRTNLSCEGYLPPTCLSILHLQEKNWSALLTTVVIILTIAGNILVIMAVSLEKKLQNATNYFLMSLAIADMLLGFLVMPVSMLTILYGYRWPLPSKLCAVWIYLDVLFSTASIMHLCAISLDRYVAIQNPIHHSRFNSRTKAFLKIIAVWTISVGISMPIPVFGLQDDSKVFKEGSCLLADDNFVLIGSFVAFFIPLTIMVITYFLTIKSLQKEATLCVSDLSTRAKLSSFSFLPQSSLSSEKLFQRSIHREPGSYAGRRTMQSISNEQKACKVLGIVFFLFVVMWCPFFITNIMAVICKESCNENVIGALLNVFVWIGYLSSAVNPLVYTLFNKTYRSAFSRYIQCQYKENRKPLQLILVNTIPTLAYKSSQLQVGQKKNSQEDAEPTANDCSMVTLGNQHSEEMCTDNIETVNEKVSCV

5-HT2A receptor = 5-HT2A receptor (Homo sapiens, UniProt P28223); test: [3H]ketanserin radioligand competition binding assay (SPA); conditions: fixed (1 nM) [3H]ketanserin, membranes containing 5-HT2A
Sequence of 5-HT2A receptor (P28223 whole entry): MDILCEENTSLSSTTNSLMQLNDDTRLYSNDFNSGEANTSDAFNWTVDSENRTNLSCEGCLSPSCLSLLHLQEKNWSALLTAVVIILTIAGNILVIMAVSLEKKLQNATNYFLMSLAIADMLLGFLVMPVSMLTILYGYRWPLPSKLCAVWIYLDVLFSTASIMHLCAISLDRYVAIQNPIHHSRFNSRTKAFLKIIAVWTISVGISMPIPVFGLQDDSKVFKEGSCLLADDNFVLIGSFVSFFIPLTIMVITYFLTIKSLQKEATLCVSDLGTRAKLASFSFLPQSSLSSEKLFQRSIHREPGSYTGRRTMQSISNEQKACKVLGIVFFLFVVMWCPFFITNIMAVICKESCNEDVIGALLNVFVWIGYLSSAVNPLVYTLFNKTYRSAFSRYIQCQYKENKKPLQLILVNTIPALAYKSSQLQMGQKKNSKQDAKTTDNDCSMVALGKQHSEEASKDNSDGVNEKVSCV

[2] = Metabolic stability / psilocin release in human liver microsomes; assay type: in vitro ADME; conditions: 2.5 μM, 400 μg/ml HLM, NADPH, 37° C.
Excerpt: (§1) A fundamental evaluation in drug development is the assessment of absorption, distribution, metabolism, excretion, and pharmacokinetics (ADME/PK) (Eddershaw et al., 2000, Drug Discovery Today 5(9): 409-414). […] Drug stability upon exposure to human liver microsomes and liver S9 cellular fractions is a common in vitro assay to approximate in vivo, liver-based drug metabolism (Richardson et al., 2016 Drug Metabolism Letters 10:83-90). First-pass metabolism is also often approximated in vitro using intestinal microsome and cellular S9 fractions (Hatley et al., 2017, Biopharmaceuticals & Drug Disposition, 38(2):155-160). […] Supernatants were analyzed for the presence of candidate prodrugs (parent molecule) and psilocin (the predicted metabolite) using Orbitrap LC-MS (Thermo Scientific) using previously described methods (Menendez-Perdomo et al., 2021, J. Mass Spectrom., 56: e4683). […] Assay concentrations (μM) of both parent ‘prodrug’ molecule and psilocin metabolite, as quantified through LC-MS using routine standard curve procedures, were plotted as functions of assay time (minutes). The metabolism rate (TI/2) was determined from the metabolism curve plot using the one phase decay feature of GraphPad PRISM software (Version 9.2.0). The quantity of parent prodrug at time zero was set as 100%. […]

[3] = Stability assay in enzyme-free control buffer; assay type: in vitro ADME; conditions: enzyme-free buffer pH 7.4, 37° C., 2 hours
Excerpt: as §1

[4] = Metabolic stability / psilocin release in human liver S9 fractions; assay type: in vitro ADME; conditions: 2.5 μM, 400 μg/ml HLS9, NADPH, 37° C.
Excerpt: as §1

[5] = Metabolic stability / psilocin release in human AB serum; assay type: in vitro ADME; conditions: 10% human AB serum
Excerpt: as §1

[6] = +5-HT1A cells stimulated with 4 mM forskolin

SMILES | 5-HT1A receptor modulation (5-HT1A receptor) | incidences of Head Twitch Response (HTR) relative to vehicle [1] | also measured
CCCCCCOC(=O)Oc1cccc2[nH]cc(CCN(C)C)c12 [B(V)] | suggests no receptor modulation |  | 
CN(C)CCc1c[nH]c2cccc(OP3(=O)OCC(C)(C)CO3)c12 [F(II)] | reveals receptor modulation | Elevated incidences of HTR | 
CN(C)CCc1c[nH]c2cccc(O[Si](c3ccccc3)(c3ccccc3)C(C)(C)C)c12 [A(III)] | suggests receptor modulation at higher ligand concentrations | Elevated incidences of HTR | 
CN(C)CCc1c[nH]c2cccc(O)c12 [psilocin, reference compound] |  |  | competition binding at the 5-HT2A receptor (5-HT2A receptor): binding; cAMP levels with increasing doses of ligand (5-HT1A receptor; [6]): reduction in cAMP levels
NCCc1c[nH]c2ccc(O)cc12 [serotonin, reference compound] |  |  | cAMP levels with increasing doses of ligand (5-HT1A receptor): reduction in cAMP levels
CCC(=O)OCOc1cccc2c1c(CCN(C)C)cn2C(=O)CC [D(XIX)] | suggests significant receptor modulation | Elevated incidences of HTR | 
CN(C)CCc1c[nH]c2cccc(OC(=O)OCC(Cl)(Cl)Cl)c12 [B(IV)] | suggests no receptor modulation | Elevated incidences of HTR | 
CN(C)CCc1c[nH]c2cccc(OP(=O)(O)O)c12 [psilocybin] |  |  | stability and conversion to psilocin in liver fractions (HLM) [2]: stable in liver fractions with no conversion to psilocin; stability in assay buffer [3]: stability of psilocybin was confirmed in assay buffer; stability and conversion to psilocin in liver fractions (HLS9) [4]: stable in liver fractions with no conversion to psilocin; stability and conversion to psilocin in serum [5]: stable in serum with no conversion to psilocin
N[C@@H](Cc1c[nH]c2ccccc12)C(=O)O [tryptophan, reference compound] |  |  | competition binding at the 5-HT2A receptor (5-HT2A receptor): no binding; cAMP levels with increasing doses of ligand (5-HT1A receptor; [6]): no reduction in cellular cAMP levels
